pIC50, pKi: −log10 of the molar value. Read-outs that look alike come from different tables or passages of the source.
Tests used:
p110α (PI3Kα) = p110α (PI3Kα) (Homo sapiens, UniProt P42336); test: LanthaScreen determination of kinetic constants (kinact, Ki) for p110α; assay type: binding; conditions: for pKi: dissociation constant of the first reversible binding, mean of 3; for kinact: read-out: kinact PI3Kα;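 as to all read-outs here: covalent inhibition constants for p110α come from LanthaScreen data, fitted globally by numerical integration in KinTek Global Kinetic Explorer software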
Experimental: Apparent dissociation constants of compounds [Ki(app)] for p110α were determined by LanthaScreen Technology (Life Technologies), as described in Ref.^21.
Maximum potential rate of covalent bond formation (Kinact) and dissociation constant of the first reversible binding (Ki) of compounds for p110α were determined by LanthaScreen Technology (Life Technologies). The calculation of kinetic parameters was carried out through global fitting for numerical integration by using KinTek Global Kinetic Explorer modelling software^22-27.

[1] = system: pSer473 of PKB/Akt in SKOV3 cells; test: In-Cell Western cellular PI3K signaling, pSer473 of PKB/Akt in SKOV3 cells; assay type: cell-based; conditions: Homo sapiens
Experimental: Protein phosphorylation was detected as follows: pSer473 of PKB/Akt with rabbit polyclonal antibody from Cell Signaling Technology (CST) (#4058) by In-Cell Western assays, where 1.2×10^4 SKOV3 cells/well in 96-well plates were plated (Cell Carrier, PerkinElmer) for 24 hours (37° C., 5% CO2), as described in Ref.^21.

[2] = mean of 3 independent measurements, global fitting with KinTek
[3] = SK-OV-3, SKOV3 cells, mean of 2 or 3 independent measurements, read-out: IC50 pPKB (S473) SKOV3
[4] = SK-OV-3, read-out: IC50 pPKB (S473) SKOV3

Chain of p110α (PI3Kα) (P42336 whole entry): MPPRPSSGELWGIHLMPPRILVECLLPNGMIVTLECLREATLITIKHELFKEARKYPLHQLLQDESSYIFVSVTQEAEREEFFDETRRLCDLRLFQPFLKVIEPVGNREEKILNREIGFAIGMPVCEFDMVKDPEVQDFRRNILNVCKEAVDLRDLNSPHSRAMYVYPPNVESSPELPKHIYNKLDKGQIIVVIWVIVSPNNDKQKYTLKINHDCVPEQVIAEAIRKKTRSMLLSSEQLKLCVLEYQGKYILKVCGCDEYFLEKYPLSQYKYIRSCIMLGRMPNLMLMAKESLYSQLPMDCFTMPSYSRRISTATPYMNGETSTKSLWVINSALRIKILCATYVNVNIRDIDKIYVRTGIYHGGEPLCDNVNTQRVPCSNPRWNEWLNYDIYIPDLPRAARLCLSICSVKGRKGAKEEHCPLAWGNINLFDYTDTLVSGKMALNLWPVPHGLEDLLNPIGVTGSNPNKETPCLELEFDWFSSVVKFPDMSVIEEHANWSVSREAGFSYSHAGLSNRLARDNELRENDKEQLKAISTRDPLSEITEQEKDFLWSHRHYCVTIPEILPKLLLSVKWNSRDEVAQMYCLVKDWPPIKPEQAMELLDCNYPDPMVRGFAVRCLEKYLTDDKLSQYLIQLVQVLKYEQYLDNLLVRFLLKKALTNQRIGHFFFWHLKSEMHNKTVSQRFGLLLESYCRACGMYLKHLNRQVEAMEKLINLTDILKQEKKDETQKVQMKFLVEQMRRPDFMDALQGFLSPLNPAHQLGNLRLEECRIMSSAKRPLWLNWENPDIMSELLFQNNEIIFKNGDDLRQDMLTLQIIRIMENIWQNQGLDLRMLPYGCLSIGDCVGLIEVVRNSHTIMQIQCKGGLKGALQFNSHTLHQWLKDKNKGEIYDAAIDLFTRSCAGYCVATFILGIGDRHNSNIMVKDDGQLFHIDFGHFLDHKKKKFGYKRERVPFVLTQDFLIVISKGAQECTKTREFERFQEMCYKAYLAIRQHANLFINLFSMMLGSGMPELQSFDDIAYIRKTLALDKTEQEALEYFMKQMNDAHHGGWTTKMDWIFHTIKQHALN
Chain of p110α (PI3Kα) (P27986 whole entry partner): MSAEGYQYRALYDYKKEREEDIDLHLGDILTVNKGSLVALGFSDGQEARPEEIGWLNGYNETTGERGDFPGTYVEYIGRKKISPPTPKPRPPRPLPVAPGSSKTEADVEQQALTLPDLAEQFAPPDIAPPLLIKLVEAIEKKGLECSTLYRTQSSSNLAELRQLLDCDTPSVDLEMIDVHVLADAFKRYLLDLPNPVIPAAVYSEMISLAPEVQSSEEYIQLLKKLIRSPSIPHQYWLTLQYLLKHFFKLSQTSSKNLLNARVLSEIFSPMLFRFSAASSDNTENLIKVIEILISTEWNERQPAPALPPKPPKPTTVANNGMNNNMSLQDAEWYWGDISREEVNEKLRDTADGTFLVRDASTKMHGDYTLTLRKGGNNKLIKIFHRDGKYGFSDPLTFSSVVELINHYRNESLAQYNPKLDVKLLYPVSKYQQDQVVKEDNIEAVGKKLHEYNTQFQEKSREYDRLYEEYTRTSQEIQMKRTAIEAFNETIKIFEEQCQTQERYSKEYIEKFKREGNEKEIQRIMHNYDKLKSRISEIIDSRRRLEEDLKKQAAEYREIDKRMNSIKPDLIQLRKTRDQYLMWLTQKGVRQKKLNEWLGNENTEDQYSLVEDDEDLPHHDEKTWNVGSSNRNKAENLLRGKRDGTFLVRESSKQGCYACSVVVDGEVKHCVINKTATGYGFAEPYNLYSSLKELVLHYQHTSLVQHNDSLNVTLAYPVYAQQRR

## C=CC(=O)N1CCO[C@@H](COCC(=O)N2CCN(c3nc(-c4cnc(N)nc4C(F)F)nc(N4CCOC[C@@H]4C)n3)CC2)C1 [Compound 40, 1-((R)-2-((2-(4-(4-(2-amino-4-(difluoromethyl)pyrimidin-5-yl)-6-((S)-3-methylmorpholino)-1,3,5-triazin-2-yl)piperazin-1-yl)-2-oxoethoxy)methyl)morpholino)prop-2-en-1-one]
p110α (PI3Kα); PI3Kα, read-out: kinact/Ki
  kinact/KI: 224000 M⁻¹ s⁻¹
p110α (PI3Kα)
  pKi: 8.14
p110α (PI3Kα); [2]
  kinact: 0.00163 s⁻¹

## N#C/C(=C/C1CC1)C(=O)N1CC[C@H](COCC(=O)N2CCN(c3nc(-c4cnc(N)nc4C(F)F)nc(N4CCOCC4)n3)CC2)C1 [Compound 9, (S,Z)-2-(3-((2-(4-(4-(2-amino-4-(difluoromethyl)pyrimidin-5-yl)-6-morpholino-1,3,5-triazin-2-yl)piperazin-1-yl)-2-oxoethoxy)methyl)pyrrolidine-1-carbonyl)-3-cyclopropylacrylonitrile]
p110α (PI3Kα); PI3Kα, read-out: kinact/Ki
  kinact/KI: 9.43e+06 M⁻¹ s⁻¹
p110α (PI3Kα)
  pKi: 8.95
p110α (PI3Kα); [2]
  kinact: 0.0105 s⁻¹
[1]; [3]
  pIC50: 7.84

## C=CC(=O)N1CCC[C@@H](COCC(=O)N2CCN(c3nc(-c4cnc(N)nc4C(F)F)nc(N4CCOC[C@@H]4C)n3)CC2)C1 [Compound 1, 1-((R)-3-((2-(4-(4-(2-amino-4-(difluoromethyl)pyrimidin-5-yl)-6-((S)-3-methylmorpholino)-1,3,5-triazin-2-yl)piperazin-1-yl)-2-oxoethoxy)methyl)piperidin-1-yl)prop-2-en-1-one]
p110α (PI3Kα)
  kinact/KI: 156000 M⁻¹ s⁻¹
  pKi: 8.57
  kinact: 0.000419 s⁻¹
[1]; [4]
  pIC50: 7.60

## C=CC(=O)N1CC(C(=O)NCCN2CCN(c3nc(-c4cnc(N)nc4C(F)F)nc(N4CCOCC4)n3)CC2)C1 [Compound 36, 1-acryloyl-N-(2-(4-(4-(2-amino-4-(difluoromethyl)pyrimidin-5-yl)-6-morpholino-1,3,5-triazin-2-yl)piperazin-1-yl)ethyl)azetidine-3-carboxamide]
[1]; [3]
  pIC50: 7.32

## N#C/C(=C/C1CC1)C(=O)N1CCC[C@@H](COCC(=O)N2CCN(c3nc(-c4cnc(N)nc4C(F)F)nc(N4CCOCC4)n3)CC2)C1 [Compound 8, (R,Z)-2-(3-((2-(4-(4-(2-amino-4-(difluoromethyl)pyrimidin-5-yl)-6-morpholino-1,3,5-triazin-2-yl)piperazin-1-yl)-2-oxoethoxy)methyl)piperidine-1-carbonyl)-3-cyclopropylacrylonitrile]
p110α (PI3Kα)
  kinact/KI: 3.96e+06 M⁻¹ s⁻¹
  pKi: 8.56
  kinact: 0.011 s⁻¹
[1]; [4]
  pIC50: 7.94

## C=CC(=O)N1CC[C@H](COCC(=O)N2CCN(c3nc(-c4cnc(N)nc4C(F)F)nc(N4CCOC[C@@H]4C)n3)CC2)C1 [Compound 3, 1-((S)-3-((2-(4-(4-(2-amino-4-(difluoromethyl)pyrimidin-5-yl)-6-((S)-3-methylmorpholino)-1,3,5-triazin-2-yl)piperazin-1-yl)-2-oxoethoxy)methyl)pyrrolidin-1-yl)prop-2-en-1-one]
p110α (PI3Kα); PI3Kα, read-out: kinact/Ki
  kinact/KI: 502000 M⁻¹ s⁻¹
p110α (PI3Kα); [2]
  kinact: 0.000432 s⁻¹
[1]; [3]
  pIC50: 7.64

## C=C(F)C(=O)N1CCC[C@H](COCC(=O)N2CCN(c3nc(-c4cnc(N)nc4C(F)F)nc(N4CCOCC4)n3)CC2)C1 [Compound 12, (S)-1-(3-((2-(4-(4-(2-amino-4-(difluoromethyl)pyrimidin-5-yl)-6-morpholino-1,3,5-triazin-2-yl)piperazin-1-yl)-2-oxoethoxy)methyl)piperidin-1-yl)-2-fluoroprop-2-en-1-one]
[1]; [3]
  pIC50: 7.81

## N#C/C(=C/C1CC1)C(=O)N1CC[C@@H](COCC(=O)N2CCN(c3nc(-c4cnc(N)nc4C(F)F)nc(N4CCOCC4)n3)CC2)C1 [Compound 10, (R,Z)-2-(3-((2-(4-(4-(2-amino-4-(difluoromethyl)pyrimidin-5-yl)-6-morpholino-1,3,5-triazin-2-yl)piperazin-1-yl)-2-oxoethoxy)methyl)pyrrolidine-1-carbonyl)-3-cyclopropylacrylonitrile]
p110α (PI3Kα); PI3Kα, read-out: kinact/Ki
  kinact/KI: 1.02e+07 M⁻¹ s⁻¹
p110α (PI3Kα)
  pKi: 8.96
p110α (PI3Kα); [2]
  kinact: 0.0111 s⁻¹
[1]; [3]
  pIC50: 7.64

## C[C@H]1COCCN1c1nc(-c2cnc(N)nc2C(F)F)nc(N2CCN(C(=O)COC[C@H]3CN(C(=O)/C(C#N)=C\C4CC4)CCO3)CC2)n1 [Compound 41, (Z)-2-((R)-2-((2-(4-(4-(2-amino-4-(difluoromethyl)pyrimidin-5-yl)-6-((S)-3-methylmorpholino)-1,3,5-triazin-2-yl)piperazin-1-yl)-2-oxoethoxy)methyl)morpholine-4-carbonyl)-3-cyclopropylacrylonitrile]
p110α (PI3Kα); PI3Kα, read-out: kinact/Ki
  kinact/KI: 1.05e+06 M⁻¹ s⁻¹
p110α (PI3Kα)
  pKi: 7.94
p110α (PI3Kα); [2]
  kinact: 0.0121 s⁻¹

## C=CC(=O)N1CCC[C@@H](OCCC(=O)N2CCN(c3nc(-c4cnc(N)nc4C(F)F)nc(N4CCOC[C@@H]4C)n3)CC2)C1 [Compound 5, 1-((R)-3-(3-(4-(4-(2-amino-4-(difluoromethyl)pyrimidin-5-yl)-6-((S)-3-methylmorpholino)-1,3,5-triazin-2-yl)piperazin-1-yl)-3-oxopropoxy)piperidin-1-yl)prop-2-en-1-one]
p110α (PI3Kα)
  kinact/KI: 595000 M⁻¹ s⁻¹
  pKi: 8.05
  kinact: 0.0052 s⁻¹
[1]; [4]
  pIC50: 7.77

## C=C(F)C(=O)N1CCC[C@@H](COCC(=O)N2CCN(c3nc(-c4cnc(N)nc4C(F)F)nc(N4CCOCC4)n3)CC2)C1 [Compound 11, (R)-1-(3-((2-(4-(4-(2-amino-4-(difluoromethyl)pyrimidin-5-yl)-6-morpholino-1,3,5-triazin-2-yl)piperazin-1-yl)-2-oxoethoxy)methyl)piperidin-1-yl)-2-fluoroprop-2-en-1-one]
p110α (PI3Kα)
  pKi: 8.73
[1]; [3]
  pIC50: 7.70

## C=CC(=O)N1CCO[C@H](COCC(=O)N2CCN(c3nc(-c4cnc(N)nc4C(F)F)nc(N4CCOC[C@@H]4C)n3)CC2)C1 [Compound 42, 1-((S)-2-((2-(4-(4-(2-amino-4-(difluoromethyl)pyrimidin-5-yl)-6-((S)-3-methylmorpholino)-1,3,5-triazin-2-yl)piperazin-1-yl)-2-oxoethoxy)methyl)morpholino)prop-2-en-1-one]
p110α (PI3Kα); PI3Kα, read-out: kinact/Ki
  kinact/KI: 75400 M⁻¹ s⁻¹
p110α (PI3Kα)
  pKi: 8.15
p110α (PI3Kα); [2]
  kinact: 0.000537 s⁻¹

## Nc1ncc(-c2nc(N3CCOCC3)nc(N3CCN(C(=O)COC[C@@H]4CCCN(C(=O)/C=C/CF)C4)CC3)n2)c(C(F)F)n1 [Compound 13, (R,E)-1-(3-((2-(4-(4-(2-amino-4-(difluoromethyl)pyrimidin-5-yl)-6-morpholino-1,3,5-triazin-2-yl)piperazin-1-yl)-2-oxoethoxy)methyl)piperidin-1-yl)-4-fluorobut-2-en-1-one]
[1]; [3]
  pIC50: 7.74

## C=CC(=O)N1CCC[C@H](COCC(=O)N2CCN(c3nc(-c4cnc(N)nc4C(F)F)nc(N4CCOC[C@@H]4C)n3)CC2)C1 [Compound 2, 1-((S)-3-((2-(4-(4-(2-amino-4-(difluoromethyl)pyrimidin-5-yl)-6-((S)-3-methylmorpholino)-1,3,5-triazin-2-yl)piperazin-1-yl)-2-oxoethoxy)methyl)piperidin-1-yl)prop-2-en-1-one]
p110α (PI3Kα); PI3Kα, read-out: kinact/Ki
  kinact/KI: 94300 M⁻¹ s⁻¹
p110α (PI3Kα)
  pKi: 8.56
p110α (PI3Kα); [2]
  kinact: 0.000262 s⁻¹
[1]; [3]
  pIC50: 7.54

## C[C@H]1COCCN1c1nc(-c2cnc(N)nc2C(F)F)nc(N2CCN(C(=O)COC[C@@H]3CN(C(=O)/C(C#N)=C\C4CC4)CCO3)CC2)n1 [Compound 43, (Z)-2-((S)-2-((2-(4-(4-(2-amino-4-(difluoromethyl)pyrimidin-5-yl)-6-((S)-3-methylmorpholino)-1,3,5-triazin-2-yl)piperazin-1-yl)-2-oxoethoxy)methyl)morpholine-4-carbonyl)-3-cyclopropylacrylonitrile]
p110α (PI3Kα); PI3Kα, read-out: kinact/Ki
  kinact/KI: 1.04e+06 M⁻¹ s⁻¹
p110α (PI3Kα)
  pKi: 7.86
p110α (PI3Kα); [2]
  kinact: 0.0143 s⁻¹

## C=CC(=O)N1CCC[C@@H](C(=O)NCCN2CCN(c3nc(-c4cnc(N)nc4C(F)F)nc(N4CCOCC4)n3)CC2)C1 [Compound 19, (R)-1-acryloyl-N-(2-(4-(4-(2-amino-4-(difluoromethyl)pyrimidin-5-yl)-6-morpholino-1,3,5-triazin-2-yl)piperazin-1-yl)ethyl)piperidine-3-carboxamide]
p110α (PI3Kα); PI3Kα, read-out: kinact/Ki
  kinact/KI: 16300 M⁻¹ s⁻¹
p110α (PI3Kα)
  pKi: 7.92
p110α (PI3Kα); [2]
  kinact: 0.000196 s⁻¹
[1]; [3]
  pIC50: 7.54

## C=CC(=O)N1CC[C@@H](COCC(=O)N2CCN(c3nc(-c4cnc(N)nc4C(F)F)nc(N4CCOC[C@@H]4C)n3)CC2)C1 [Compound 4, 1-((R)-3-((2-(4-(4-(2-amino-4-(difluoromethyl)pyrimidin-5-yl)-6-((S)-3-methylmorpholino)-1,3,5-triazin-2-yl)piperazin-1-yl)-2-oxoethoxy)methyl)pyrrolidin-1-yl)prop-2-en-1-one]
p110α (PI3Kα); PI3Kα, read-out: kinact/Ki
  kinact/KI: 325000 M⁻¹ s⁻¹
p110α (PI3Kα)
  pKi: 7.93
p110α (PI3Kα); [2]
  kinact: 0.00383 s⁻¹
[1]; [3]
  pIC50: 7.45

## C/C=C/C(=O)N1CC(C(=O)N(C)CC(=O)N2CCN(c3nc(-c4cnc(N)nc4C(F)F)nc(N4CCOCC4)n3)CC2)C1 [Compound 34, (E)-N-(2-(4-(4-(2-amino-4-(difluoromethyl)pyrimidin-5-yl)-6-morpholino-1,3,5-triazin-2-yl)piperazin-1-yl)-2-oxoethyl)-1-(but-2-enoyl)-N-methylazetidine-3-carboxamide]
[1]; [3]
  pIC50: 6.63

## Nc1ncc(-c2nc(N3CCOCC3)nc(N3CCN(C(=O)COC[C@H]4CCCN(C(=O)/C=C/CF)C4)CC3)n2)c(C(F)F)n1 [Compound 14, (S,E)-1-(3-((2-(4-(4-(2-amino-4-(difluoromethyl)pyrimidin-5-yl)-6-morpholino-1,3,5-triazin-2-yl)piperazin-1-yl)-2-oxoethoxy)methyl)piperidin-1-yl)-4-fluorobut-2-en-1-one]
p110α (PI3Kα)
  pKi: 8.72
[1]; [3]
  pIC50: 7.65

— patent US20240208957A1, “TRIAZINE DERIVATIVE AS REVERSIBLE AND IRREVERSIBLE COVALENT INHIBITORS OF PI3K” (UNIVERSITÄT BASEL, priority 2021, published 2024)
